This is an account of results in patent publication US5776935A, “Pyrido-phtalazin diones and their use against neurological disorders associated with excitotoxicity and malfunctioning of glutamatergic neurotransmission” (Merz & Co. GmbH & Co., priority 1996, dated 1998).

Where only a bound is given, the exact number is not on record here.

One assay addresses T1, NMDA receptor (Mus musculus, UniProt P35438).
T1 construct: from tissue; host or cells: living mice (albino Swiss males for NMDA and PTZ tests, NMR females for MES)
The experiment in a line: Maximal electroshock (MES)-induced tonic convulsions. The assay is classed as in vivo. As to conditions: i.p.; for ED50: mouse, ip, 0.25 h, read-out: MES ID50. How it is done:
To assess NMDA receptor antagonistic properties of the tested agents by assessing anticonvulsive effects. Additionally the role of organic acid transporters in the elimination from the brain of tested agents was assessed by using an inhibitor, Probenicid, on the duration of anticonvulsive activity.
Male albino Swiss mice (19-21 g) housed 10-15 per cage were used for the NMDA lethality test (Leander et al., 1988). For pentylenetetrazol (PTZ)-induced convulsions male albino Swiss mice (25-34 g.) housed 40 per cage (58×38×20 cm) were used while in the maximal electroshock (MES) and motor impairment tests NMR female mice (18-28 g) housed 5 per cage were employed. All animals were kept with water and food ad libittum under a 12-h light-dark cycle (light on at 6 a.m.), and at a controlled temperature (20°±0.5° C.). All experiments were performed between 10 a.m. and 5 p.m. Tested agents were injected 15 min. i.p before the induction of convulsions if not stated otherwise (see below). Mrz 2/502 was dissolved in saline added with NaOH. Most other agents were dissolved in the following solution: 0.606 g Tris; 5.0 g. glucose; 0.5 g. Tween 80; and 95 ml water. The choline and tetramethylammonium salts were dissolved in distilled water.
MES (100 Hz, 0.5 sec shock duration, 50 mA shock intensity, 0.9 ms impulse duration, Ugo Basile) was applied through corneal electrodes. The presence of tonic convulsions was scored (tonic extension of hind paws with minimum angle to the body of 90°). In an additional experiment mice were injected with Probenicid (200 mg/kg) 30 min before administration of the tested agents to assess the role of organic acid transport in elimination (duration of action). The aim was to obtain ED50 s for all parameters scored using the Litchfield Wilcoxon (1949) test for quantal dose responses.

Assay [1] concerns the target T2, glycineB site of the NMDA receptor (rat cortical membranes) (Rattus norvegicus, UniProt P35439).
T2 construct: The cortex was dissected and homogenised in 20 volumes of ice-cold 0.32M sucrose; from tissue; host or cells: brain cortex membranes of male Sprague-Dawley rats
The experiment in a line: [3H]5,7-DCKA binding assay. As to conditions: 10 nM [3H]5,7-DCKA. The protocol: (§1) Tissue preparation was performed according to Foster and Wong (1987). Male Sprague-Dawley rats (200-250g) were decapitated and their brains were removed rapidly. The cortex was dissected and homogenised in 20 volumes of ice-cold 0.32M sucrose using a glass-Teflon homogenizer. The homogenate was centrifuged at 1000×g for 10 min. The pellet was discarded and the supernatant centrifuged at 20,000×g for 20 min. The resulting pellet was resuspended in 20 volumes of distilled water and centrifuged for 20 min at 8000×g. Then the supernatant and the buffy coat were centrifuged three times (48,000× g for 20 min) in the presence of 5 mM Tris-HCl, pH 7.4. All centrifugation steps were carried out at 4° C. After resuspension in 5 volumes of 5 mM Tris-HCl, pH 7.4 the membrane suspension was frozen rapidly at -80° C. until the day of assay. On the day of assay the membranes were thawed and washed four times by resuspension in 5 mM Tris-HCl, pH 7.4 and centrifugation at 48,000× g for 20 min. The final pellet was suspended in assay buffer.
(§2) The amount of protein in the final membrane preparation was determined according to the method of Lowry (1951) with some modifications (Hartfree, 1972). 50 μl of Protein samples (in triplicates) were diluted to 1 ml with distilled water and treated with 0.9 ml of a solution containing 2 g potassium sodium tartrate and 10 g Na2 CO3 in 500 ml 1N NaOH and 500ml water. Blank and standard (with bovine serum albumin) were set up in the same way. The tubes were placed in a water bath at 50° C. for 10 min. and cooled at room temperature. 100 μl of a solution containing 2 g potassium sodium tartrate and 1 g CuSO4 x 5 H2 O in 90 ml water and 10 ml 1N NaOH were added. The samples were left at room temperature for at least 10 min., then 3 ml of Folin-Ciocalteu reagent (1 ml of reagent diluted with 15 ml water) was added rapidly during mixing. The tubes were again heated at 50° C. for 10 min. and cooled to room temperature. Absorbencies were then read in 1 cm cuvets at 650 nm. The final protein concentration used for our studies was between 100 and 250 μg/ml.
(§3) Incubation in both binding assays was terminated using a Millipore filter system. The samples, all in triplicate, were rinsed three times with 2.5 ml ice cold assay buffer over glass fibre filters obtained from Schleicher & Schuell under a constant vacuum. Following separation and rinse the filters were placed into scintillation liquid (5 ml; Ultima Gold) and radioactivity retained on the filters was determined by using conventional liquid scintillation counter (Hewlett Packard, Liquid Scintillation Analyser). `Total binding` was the absolute amount of radioligand bound in the absence of any additives whereas `non-specific` binding was determined in the presence of a high concentration of competitor.
[^3 H]5,7-DCKA binding assay
Experiments were performed according to the methods modified from previous groups (Canton et al., 1991; Yoneda et al., 1993). Membranes were suspended and incubated in 10 mM Tris-HCl, pH 7.4. Incubation time was 45 min at 4° C. Non-specific binding of [^3 H]5,7-DCKA was defined by the addition of unlabeled glycine at 0.1 mM. The stop-solution contained 10 mM Tris-HCl and 10 mM magnesium sulphate, pH 7.4. Filtration was performed as rapidly as possible. Displacement experiments were performed with a fixed [^3 H]5,7-DCKA concentration of 10 nM. Test compounds were diluted in water or DMSO and added in at least 5 different concentrations.

Assay [2] addresses T3, strychnine-insensitive glycine site (glycineB) of the NMDA receptor (rat cortical membranes) (Rattus norvegicus, UniProt P35439).
T3 construct: The cortex was dissected and homogenised in 20 volumes of ice-cold 0.32M sucrose; from tissue; host or cells: brain cortex membranes of male Sprague-Dawley rats
Kind of assay: [3H]glycine binding assay. To be noted: 20 nM [3H]glycine, 100 μM strychnine. How it is done:
as §1, §2, §3
[^3 H]glycine binding assay
[^3 H]glycine binding assays were performed according to the method described by Kessler and co-workers (1989). Rat cortical membranes were prepared as previously described and the final pellet was suspended in 50 mM Tris-acetate, pH 7.4. At least 5 different concentrations of test compounds were incubated with 2OnM [^3 H]glycine for 30 min at 4° C. in the presence of 100 μM strychnine. All compounds were dissolved in water or DMSO, respectively. Non-specific binding was determined by including 100 μM glycine in the incubation mixture. The incubation was terminated by diluting the samples with 2 ml of stop solution (50 mM Tris-HCl including 10 mM magnesium sulphate, pH 7.4, cooled to <2° C.) followed by a further rinse with 2.5 ml buffer. Filtration was performed as rapidly as possible.

Regarding `O=c1[nH][nH]c(=O)c2nc3ccc(F)cc3cc12` [Mrz 2/519], the ED50 at NMDA receptor (15 min before induction) was > 60 mg/kg. In addition, the concentration for half-maximal inhibition (IC50) in assay [1] was determined as 1.1 µM; in assay [2], 0.015 µM.
Regarding `O=c1[nH][nH]c(=O)c2nc3ccc(Br)cc3cc12` [Mrz 2/503], the ED50 at NMDA receptor (15 min before induction) is > 100 mg/kg. The IC50 is 0.25 µM in assay [1] and 0.013 µM in assay [2].
Take `O=c1[nH]nc(O)c2c1cc1cc(Br)ccc1[n+]2[O-]` [Mrz 2/514, 8-bromo-4-hydroxy-1-oxo-1,2-dihydropyridazino[4,5-b]-quinoline 5-oxide]: the “activity in the MES test” value on NMDA receptor is reported as “effective”. The ED50 at NMDA receptor (15 min before induction) was determined as 20.2 mg/kg. For the same molecule, the half-maximal inhibitory concentration (IC50) came out at 0.01 µM in assay [1] and 0.004 µM in assay [2].
For `O=c1[nH]nc(O)c2c1cc1cc(Cl)ccc1[n+]2[O-]` [Mrz 2/502, 8-chloro-4-hydroxy-1-oxo-1,2-dihydropyridazino[4,5-b]-quinoline 5-oxide], the “activity in the MES test” value at NMDA receptor is reported as “effective”. For the same molecule, the “MES ID50” value at NMDA receptor (15 min before induction, listed as 502, 15 min) was 47.6 mg/kg. For the same molecule, the IC50 in assay [1] amounted to 0.02 µM; in assay [2], 0.013 µM.
For the molecule `O=c1[nH]nc(O)c2c1cc1cc(F)ccc1[n+]2[O-]` [Mrz 2/516, 8-fluoro-4-hydroxy-1-oxo-1,2-dihydropyridazino[4,5-b]-quinoline 5-oxide], the “activity in the MES test” value at NMDA receptor is listed as “effective”. The ED50 on NMDA receptor (15 min before induction) was determined as 16.6 mg/kg. In addition, the IC50 in assay [1] was determined as 0.3 µM; in assay [2], 0.017 µM.
In the case of `O=c1[nH][nH]c(=O)c2nc3ccc(Cl)cc3cc12` [Mrz 2/501], at NMDA receptor (15 min before induction), the ED50 was > 100 mg/kg. For the same molecule, the IC50 turned out to be 0.12 µM in assay [1] and 0.08 µM in assay [2].
Turning to `O=c1[nH][nH]c(=O)c2nc3cc(Cl)c(Cl)cc3cc12` [Mrz 2/515], the ED50 at NMDA receptor (15 min before induction) is > 100 mg/kg. In assay [1], this molecule returned an IC50 of 0.53 µM.
